Legend:
SARS-CoV-2 pseudovirus [1] = type: cell-based; details: for EC50: read-out: EC50-SARS-CoV-2
VSV G pseudovirus = type: cell-based, vesicular stomatitis virus (VSV); details: read-out: EC50-VSV
Huh 7 cells = details: concentration of 50% cellular toxicity in Huh 7 cells
SARS-CoV-2 pseudovirus [2] = assay: Single-cycle time-of-addition experiment on SARS-CoV-2 pseudovirus; type: cell-based; details: 25 µM, Huh 7 cells

Structure (SMILES) | EC50 (SARS-CoV-2 pseudovirus [1]) | EC50 (VSV G pseudovirus) | CC50 (Huh 7 cells) | anti-SARS-CoV-2 activity compared to lead 1 (SARS-CoV-2 pseudovirus [1]) | inhibition rate, process d (SARS-CoV-2 pseudovirus [2]; added 1 h post infection) | inhibition rate, process b (SARS-CoV-2 pseudovirus [2]; added during pseudovirus infection at 0 °C) | inhibition rate, process a (SARS-CoV-2 pseudovirus [2]; added during pseudovirus infection at 37 °C)
O=C(CN1CCCC2=CC3CC(CN4CCCCC34)C21)Nc1ccc(I)cc1 (stereo not shown) [11c, 12N-N′-p-Iodophenylcarbamoylmethyl aloperine] | 29.5 µM | 47.8 µM | 124 µM |  |  |  | 
O=C(CN1CCCC2=CC3CC(C4CCCCN4C3)C21)Nc1ccc(Cl)cc1Cl (stereo not shown) [11d, 12N-N′-(2,4-Dichlorophenyl)carbamoylmethyl aloperine] | 54.8 µM | 70.5 µM | 167 µM |  |  |  | 
O=C(CN1CCCC2=CC3CC(C4CCCCN4C3)C21)Nc1cc(Br)ccc1Cl (stereo not shown) [11g, 12N-N′-(5-Bromo-2-chlorophenyl)carbamoylmethyl aloperine] | 90.3 µM | 77.5 µM | > 267 µM |  |  |  | 
Cc1cc(Cl)ccc1NC(=O)CN1CCCC2=CC3CC(C4CCCCN4C3)C21 (stereo not shown) [11j, 12N-N′-(4-Chloro-2-methylphenyl)carbamoylmethyl aloperine] | 107 µM | 75.1 µM | > 267 µM |  |  |  | 
O=C(CN1CCCC2=CC3CC(C4CCCCN4C3)C21)Nc1cc(Cl)cc(C(F)(F)F)c1 (stereo not shown) [11k, 12N-N′-(3-Chloro-5-trifluoromethylphenyl)carbamoylmethyl aloperine] | 10.4 µM | 17.5 µM | 57.1 µM | slightly elevated activity |  |  | 
Cc1ccc(NC(=O)CN2CCCC3=CC4CC(CN5CCCCC45)C32)cc1C (stereo not shown) [11n, 12N-N′-(3,4-Dimethylphenyl)carbamoylmethyl aloperine] | 70.8 µM | 108 µM | > 267 µM |  |  |  | 
O=C(CN1CCCC2=CC3CC(CN4CCCCC34)C21)Nc1cc(C(F)(F)F)cc(C(F)(F)F)c1 (stereo not shown) [11o, 12N-N′-(3,5-Ditrifluoromethylphenyl)carbamoylmethyl aloperine] | 17 µM | 21.9 µM | 71 µM |  |  |  | 
O=C(CN1CCCC2=CC3CC(C4CCCCN4C3)C21)Nc1ccc2ccccc2c1 (stereo not shown) [11p, 12N-N′-(2-Naphthyl)carbamoylmethyl aloperine] | 37.1 µM | 43.5 µM | 96.7 µM |  |  |  | 
O=C(CN1CCCC2=CC3CC(CN4CCCCC34)C21)Nc1ccc2ccccc2n1 (stereo not shown) [11q, 12N-N′-(2-Quinolyl)carbamoylmethyl aloperine] | 67.4 µM | 120 µM | > 267 µM |  |  |  | 
O=C(CNc1ccccc1)N1CCCC2=CC3CC(CN4CCCCC34)C21 (stereo not shown) [14a, 12N-N′-Phenylaminoacetyl aloperine] | > 267 µM | > 267 µM | > 267 µM |  |  |  | 
O=C(CNc1ccc(F)cc1)N1CCCC2=CC3CC(CN4CCCCC34)C21 (stereo not shown) [14b, 12N-N′-p-Fluorophenylaminoacetyl aloperine] | 177 µM | > 267 µM | > 267 µM |  |  |  | 
O=C(CNc1ccc(Cl)cc1)N1CCCC2=CC3CC(CN4CCCCC34)C21 (stereo not shown) [14d, 12N-N′-p-Chlorophenylaminoacetyl aloperine] | 61.3 µM | 163 µM | > 267 µM |  |  |  | 
O=C(CNc1ccc(Br)cc1)N1CCCC2=CC3CC(CN4CCCCC34)C21 (stereo not shown) [14e, 12N-N′-p-Bromophenylaminoacetyl aloperine] | 37.3 µM | 85.4 µM | 180 µM |  |  |  | 
O=C(CNc1cccc(C(F)(F)F)c1)N1CCCC2=CC3CC(CN4CCCCC34)C21 (stereo not shown) [14h, 12N-N′-m-Trifluoromethylphenylaminoacetyl aloperine] | 69.2 µM | 134 µM | > 267 µM |  |  |  | 
COc1cccc(NCC(=O)N2CCCC3=CC4CC(C5CCCCN5C4)C32)c1 (stereo not shown) [14i, 12N-N′-m-Methoxyphenylaminoacetyl aloperine] | > 267 µM | > 267 µM | > 267 µM |  |  |  | 
O=C(CNc1ccc(Cl)cc1Cl)N1CCCC2=CC3CC(CN4CCCCC34)C21 (stereo not shown) [14k, 12N-N′-(2,4-Dichlorophenylamino)acetyl aloperine] | 17.8 µM | 36.2 µM | 65.8 µM |  |  |  | 
O=C(CNc1ccc(Cl)c(Cl)c1)N1CCCC2=CC3CC(C4CCCCN4C3)C21 (stereo not shown) [14l, 12N-N′-(3,4-Dichlorophenylamino)acetyl aloperine] | 15.8 µM | 35.9 µM | 63 µM |  |  |  | 
Cc1cc(C)cc(NCC(=O)N2CCCC3=CC4CC(CN5CCCCC45)C32)c1 (stereo not shown) [14m, 12N-N′-(3,5-Dimethylphenylamino)acetyl aloperine] | > 267 µM | > 267 µM | > 267 µM |  |  |  | 
COc1cc(NCC(=O)N2CCCC3=CC4CC(CN5CCCCC45)C32)cc(OC)c1 (stereo not shown) [14n, 12N-N′-(3,5-Dimethoxyphenylamino)acetyl aloperine] | > 267 µM | > 267 µM | > 267 µM |  |  |  | 
O=C(CNc1cc(C(F)(F)F)cc(C(F)(F)F)c1)N1CCCC2=CC3CC(CN4CCCCC34)C21 (stereo not shown) [14o, 12N-N′-(3,5-Ditrifluoromethylphenylamino)acetyl aloperine] | 37.6 µM | 48.3 µM | 113 µM |  |  |  | 
O=C(CNc1cccc2ccccc12)N1CCCC2=CC3CC(C4CCCCN4C3)C21 (stereo not shown) [14p, 12 N-N′-(1-Naphthylamino)acetyl aloperine] | 73.6 µM | 125 µM | 199 µM |  |  |  | 
O=C(CNc1ccc2ccccc2c1)N1CCCC2=CC3CC(CN4CCCCC34)C21 (stereo not shown) [14q, 12N-N′-(2-Naphthylamino)acetyl aloperine] | 87.2 µM | 108 µM | 224 µM |  |  |  | 
O=C(Nc1ccc(F)cc1F)N1CCCC2=CC3CC(CN4CCCCC34)C21 (stereo not shown) [15a, 12N-N′-(2,4-Difluorophenyl)carbamoyl aloperine] | 195 µM | 139 µM | > 267 µM |  |  |  | 
O=C(Nc1cc(C(F)(F)F)cc(C(F)(F)F)c1)N1CCCC2=CC3CC(CN4CCCCC34)C21 (stereo not shown) [15c, 12N-N′-(3,5-Ditrifluoromethylphenyl)carbamoyl aloperine] | 11.5 µM | 14.9 µM | 53.9 µM |  |  |  | 
CCCNC(=O)[C@H]1O[C@@H]1C(=O)N[C@H](C(=O)N1CCC[C@H]1C(=O)O)[C@@H](C)CC [CA-074, reference compound] | 2.7 µM | 10.5 µM | 231 µM |  | 93% | 77% | 87%

Reference: PMC8318836 (Bioorganic Chemistry, 2021)
